Data on 24 molecules can be found in patent US9498483B2, “2,3,5-trisubstituted thiophene compounds and uses thereof” (priority 2010, dated 2016).

One assay has as its target T1, HCV polymerase (Hepatitis C virus genotype 1b, UniProt Q9WMX2).
T1 construct: (His)6 (C); made in house; host or cells: XL-1 cells (E. coli, by own knowledge)
The assay can be described thus: Polymerase assay of Biological Example 1 (IC50 values of Table 3). Format: biochemical. The note with it: IC50 values of Table 3, polymerase assay of Biological Example 1; read-out: NS5B-enzyme3.

Assay [1] deals with HCV replicon I389luc-ubi-neo/NS3-3′/ET in ET (Huh-lucubineo-ET) cells. In words: Replicon assay (Biological Example 2), luciferase readout. Format: cell-based. The note with it: Hepatitis C virus. Summed up:
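EC50 values come from Hill fits of % inhibition of replicon-driven firefly luciferase, relative to no-compound wells. Compounds were serially diluted (10 points, 3-fold, 0.1 nM–50 μM final, 0.5% DMSO) onto ET replicon cells and read after 48 h.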

The mark [2] stands for this setting: ET cells, luciferase activity 48 hours after compound.

`CC(C)(C)C#Cc1cc(N2C(=O)[C@H](O)CC[C@H]2C2CCCCC2)c(C(=O)O)s1` [Compound 334, 3-((3R,6S)-6-Cyclohexyl-3-hydroxy-2-oxo-piperidin-1-yl)-5-(3,3-dimethyl-but-1-ynyl)-thiophene-2-carboxylic acid]: the IC50 on HCV polymerase was 3 nM; in assay [1] (setting [2]), no more than 100 nM.
For `CNC(=O)c1ccc(S(=O)(=O)N2CC(=O)N(c3cc(C#CC(C)(C)C)sc3C(=O)O)[C@H](C3CCCCC3)C2)cc1` [Compound 253, 3-[(R)-2-Cyclohexyl-4-(4-methylcarbamoyl-benzenesulfonyl)-6-oxo-piperazin-1-yl]-5-(3,3-dimethyl-but-1-ynyl)-thiophene-2-carboxylic acid], the figures for the IC50 (on HCV polymerase; in assay [1] (setting [2])) were 2 nM and no more than 100 nM, respectively.
As for `CC(C)(C)C#Cc1cc(N2C(=O)[C@@](C)(CC(O)CO)OC[C@H]2C2CCCCC2)c(C(=O)O)s1` (stereo partly drawn) [Compound 330, 3-[(2R,5R)-5-Cyclohexyl-2-(2,3-dihydroxy-propyl)-2-methyl-3-oxo-morpholin-4-yl]-5-(3,3-dimethyl-but-1-ynyl)-thiophene-2-carboxylic acid], the results for the IC50 (on HCV polymerase; in assay [1] (setting [2])) were 3 nM and no more than 100 nM, respectively.
In the same order, the values of `COc1ccc(S(=O)(=O)N2CC(=O)N(c3cc(C#CC(C)(C)C)sc3C(=O)O)[C@H](C3CCCCC3)C2)cc1` [Compound 190, 3-[(R)-2-Cyclohexyl-4-(4-methoxy-benzenesulfonyl)-6-oxo-piperazin-1-yl]-5-(3,3-dimethyl-but-1-ynyl)-thiophene-2-carboxylic acid] are 1 nM and no more than 100 nM.
With `N#Cc1ccccc1-c1ccc(S(=O)(=O)N2CC(=O)N(c3cc(-c4ccccc4)sc3C(=O)O)[C@H](C3CCCCC3)C2)cn1` [Compound 213, 3-{(R)-4-[6-(2-Cyano-phenyl)-pyridine-3-sulfonyl]-2-cyclohexyl-6-oxo-piperazin-1-yl}-5-phenyl-thiophene-2-carboxylic acid], the IC50 on HCV polymerase was 1 nM; in assay [1] (setting [2]), no more than 100 nM.
For `O=C(O)c1sc(-c2ccc(Cl)cc2)cc1N1C(=O)CN(S(=O)(=O)c2ccc(N3CCCC3)cc2)C[C@H]1C1CCCCC1` [Compound 231, 5-(4-Chloro-phenyl)-3-[(R)-2-cyclohexyl-6-oxo-4-(4-pyrrolidin-1-yl-benzenesulfonyl)-piperazin-1-yl]-thiophene-2-carboxylic acid] the same measures were 1 nM and no more than 100 nM.
Take `Cc1ccc(-c2cc(N3C(=O)CN(S(=O)(=O)c4cnn(C)c4)C[C@H]3C3CCCCC3)c(C(=O)O)s2)cc1` [Compound 295, 3-[(R)-2-Cyclohexyl-4-(1-methyl-1H-pyrazole-4-sulfonyl)-6-oxo-piperazin-1-yl]-5-p-tolyl-thiophene-2-carboxylic acid]: the IC50 on HCV polymerase is 4 nM; in assay [1] (setting [2]) it was no more than 100 nM.
On to `Cn1ccc(S(=O)(=O)N2CC(=O)N(c3cc(C#CC(C)(C)C)sc3C(=O)O)[C@H](C3CCCCC3)C2)n1` [Compound 193, 3-[(R)-2-Cyclohexyl-4-(1-methyl-1H-pyrazole-3-sulfonyl)-6-oxo-piperazin-1-yl]-5-(3,3-dimethyl-but-1-ynyl)-thiophene-2-carboxylic acid], for which the IC50 on HCV polymerase is 1 nM; in assay [1] (setting [2]) it was no more than 100 nM.
For `C[C@@H]1CCCN1c1ccc(S(=O)(=O)N2CC(=O)N(c3cc(-c4ccccc4)sc3C(=O)O)C(C3CCCCC3)C2)cc1` (stereo partly drawn) [Compound 127, 3-{2-Cyclohexyl-4-[4-((R)-2-methyl-pyrrolidin-1-yl)-benzenesulfonyl]-6-oxo-piperazin-1-yl}-5-phenyl-thiophene-2-carboxylic acid] the same measures were 3 nM and no more than 100 nM.
Take `CCCN(CCC)c1ccc(S(=O)(=O)N2CC(=O)N(c3cc(-c4ccccc4)sc3C(=O)O)C(C3CCCCC3)C2)cn1` (stereo not drawn) [Compound 77, 3-[2-Cyclohexyl-4-(6-dipropylamino-pyridine-3-sulfonyl)-6-oxo-piperazin-1-yl]-5-phenyl-thiophene-2-carboxylic acid]: the figures for the IC50 (on HCV polymerase; in assay [1] (setting [2])) were 3 nM and no more than 100 nM, respectively.
For the molecule `CC(C)(C)C#Cc1cc(N2C(=O)CN(S(=O)(=O)c3ccc(C#N)cc3)C[C@H]2C2CCCCC2)c(C(=O)O)s1` [Compound 238, 3-[(R)-4-(4-Cyano-benzenesulfonyl)-2-cyclohexyl-6-oxo-piperazin-1-yl]-5-(3,3-dimethyl-but-1-ynyl)-thiophene-2-carboxylic acid], the IC50 at HCV polymerase was 2 nM; in assay [1] (setting [2]) it was no more than 100 nM.
Take `N[C@H]1CC(=O)N(c2cc(-c3ccccc3)sc2C(=O)O)[C@H](C2CCCCC2)C1` [Compound 28, 3-((2S,4R)-4-Amino-2-cyclohexyl-6-oxo-piperidin-1-yl)-5-phenyl-thiophene-2-carboxylic acid]: the IC50 on HCV polymerase is 226 nM; in assay [1] (setting [2]) it was no less than 5000 nM.
With `O=C(O)c1sc(-c2ccc(F)cc2)cc1N1C(=O)CN(S(=O)(=O)c2ccc(N3CC4CCC(C3)O4)nc2)C[C@H]1C1CCCCC1` [Compound 196, 3-{(R)-2-Cyclohexyl-4-[6-(8-oxa-3-aza-bicyclo[3.2.1]oct-3-yl)-pyridine-3-sulfonyl]-6-oxo-piperazin-1-yl}-5-(4-fluoro-phenyl)-thiophene-2-carboxylic acid], the IC50 at HCV polymerase was 1 nM; in assay [1] (setting [2]), no more than 100 nM.
With `CC(C)(C)C#Cc1cc(N2C(=O)CN(S(=O)(=O)c3ccc(C(F)(F)F)nc3)C[C@H]2C2CCCCC2)c(C(=O)O)s1` [Compound 230, 3-[(R)-2-Cyclohexyl-6-oxo-4-(6-trifluoromethyl-pyridine-3-sulfonyl)-piperazin-1-yl]-5-(3,3-dimethyl-but-1-ynyl)-thiophene-2-carboxylic acid], the IC50 on HCV polymerase is 6 nM; in assay [1] (between 100 nM and 5.0 uM), 100 to 5000 nM.
Turning to `CC(C)(C)C#Cc1cc(N2C(=O)CCC[C@H]2C2CCCCC2)c(C(=O)O)s1` [Compound 35, 3-((S)-2-Cyclohexyl-6-oxo-piperidin-1-yl)-5-(3,3-dimethyl-but-1-ynyl)-thiophene-2-carboxylic acid], the IC50 on HCV polymerase is 9.5 nM; in assay [1] (setting [2]), no more than 100 nM.
`O=C(O)c1sc(-c2ccc(Cl)cc2)cc1N1C(=O)CN(S(=O)(=O)c2ccc(N3CC4CC3CO4)nc2)C[C@H]1C1CCCCC1` (stereo partly drawn) [Compound 229, 5-(4-Chloro-phenyl)-3-{(R)-2-cyclohexyl-4-[6-(2-oxa-5-aza-bicyclo[2.2.1]hept-5-yl)-pyridine-3-sulfonyl]-6-oxo-piperazin-1-yl}-thiophene-2-carboxylic acid]: the results for the IC50 (on HCV polymerase; in assay [1] (setting [2])) were 1 nM and no more than 100 nM, respectively.
As for `CC(C)(C)C#Cc1cc(N2C(=O)OC[C@H]2C2CCCCC2)c(C(=O)O)s1` [Compound 181, 3-((R)-4-Cyclohexyl-2-oxo-oxazolidin-3-yl)-5-(3,3-dimethyl-but-1-ynyl)-thiophene-2-carboxylic acid], the IC50 is 3 nM at HCV polymerase; 100 to 5000 nM in assay [1] (between 100 nM and 5.0 uM).
On to `CCC1CCCN1c1ccc(S(=O)(=O)N2CC(=O)N(c3cc(-c4ccccc4)sc3C(=O)O)[C@H](C3CCCCC3)C2)cn1` (stereo partly drawn) [Compound 154, 3-{(R)-2-Cyclohexyl-4-[6-(2-ethyl-pyrrolidin-1-yl)-pyridine-3-sulfonyl]-6-oxo-piperazin-1-yl}-5-phenyl-thiophene-2-carboxylic acid], for which the IC50 was 3 nM at HCV polymerase and no more than 100 nM in assay [1] (setting [2]).
Take `CCn1cc(S(=O)(=O)N2CC(=O)N(c3cc(-c4ccc(C)cc4)sc3C(=O)O)[C@H](C3CCCCC3)C2)cn1` [Compound 296, 3-[(R)-2-Cyclohexyl-4-(1-ethyl-1H-pyrazole-4-sulfonyl)-6-oxo-piperazin-1-yl]-5-p-tolyl-thiophene-2-carboxylic acid]: the IC50 is 5 nM at HCV polymerase and no more than 100 nM in assay [1] (setting [2]).
`C[C@H](O)C[C@H]1OC[C@@H](C2CCCCC2)N(c2cc(C#CC(C)(C)C)sc2C(=O)O)C1=O` [Compound 337, 3-[(2R,5R)-5-Cyclohexyl-2-((S)-2-hydroxy-propyl)-3-oxo-morpholin-4-yl]-5-(3,3-dimethyl-but-1-ynyl)-thiophene-2-carboxylic acid]: the IC50 at HCV polymerase was 2 nM; in assay [1] (setting [2]) it was no more than 100 nM.
On to `C[C@@H]1C[C@@H](O)CN1c1ccc(S(=O)(=O)N2CC(=O)N(c3cc(-c4ccccc4)sc3C(=O)O)C(C3CCCCC3)C2)cn1` (stereo partly drawn) [Compound 122, 3-{2-Cyclohexyl-4-[6-((2R,4R)-4-hydroxy-2-methyl-pyrrolidin-1-yl)-pyridine-3-sulfonyl]-6-oxo-piperazin-1-yl}-5-phenyl-thiophene-2-carboxylic acid], for which the figures for the IC50 (on HCV polymerase; in assay [1] (setting [2])) were 2 nM and no more than 100 nM, respectively.
As for `CC(C)(C)C#Cc1cc(N2C(=O)CN(S(=O)(=O)c3ccc4oc(=O)[nH]c4c3)C[C@H]2C2CCCCC2)c(C(=O)O)s1` [Compound 252, 3-[(R)-2-Cyclohexyl-6-oxo-4-(2-oxo-2,3-dihydro-benzooxazole-5-sulfonyl)-piperazin-1-yl]-5-(3,3-dimethyl-but-1-ynyl)-thiophene-2-carboxylic acid], the IC50 at HCV polymerase is 2 nM; in assay [1] (between 100 nM and 5.0 uM) it was 100 to 5000 nM.
For the molecule `COCCN(CCOC)c1ccc(S(=O)(=O)N2CC(=O)N(c3cc(-c4ccccc4)sc3C(=O)O)C(C3CCCCC3)C2)cn1` (stereo not drawn) [Compound 80, 3-(4-{6-[Bis-(2-methoxy-ethyl)-amino]-pyridine-3-sulfonyl}-2-cyclohexyl-6-oxo-piperazin-1-yl)-5-phenyl-thiophene-2-carboxylic acid], the results for the IC50 (at HCV polymerase; in assay [1] (setting [2])) were 6 nM and no more than 100 nM, respectively.
For `CC(C)(C)C#Cc1cc(N2C(=O)OCCC2C2CCCCC2)c(C(=O)O)s1` (stereo not drawn) [Compound 308, 3-(4-Cyclohexyl-2-oxo-[1,3]oxazinan-3-yl)-5-(3,3-dimethyl-but-1-ynyl)-thiophene-2-carboxylic acid], the values for the IC50 (on HCV polymerase; in assay [1] (setting [2])) were 14 nM and no more than 100 nM, respectively.
